According to patent US6689779B2, “Oxazolidinone derivatives and a process for the preparation thereof” (priority 2000, dated 2004):
Values after ≈ are worked out from the molar mass of the structure shown.

Tested on: ATCC 35837: Ethanmbutol resistant Mycobacterium tuberculosis
Assay: Assay for in vitro antibacterial activity, agar dilution method: ATCC 35837
Type: cell-based
Settings: for MIC50: Mycobacterium tuberculosis, ATCC35837, read-out: Antibacterial Activity (MIC50) ATCC 35837; for Antibacterial Activity (MIC50) ATCC 35837: agar dilution method, Ethanmbutol resistant Mycobacterium tuberculosis

| Structure (SMILES) | MIC50 [µg/mL] | Antibacterial Activity (MIC50) ATCC 35837 [µg/mL] |
| --- | --- | --- |
| N[C@@H]1CON=C1O [Cycloserine, reference compound] | 6.25 (≈ 61.2 µM) | – |
| CC(=O)NC[C@H]1CN(c2ccc(-c3ccc(-c4noc(C)n4)nc3)c(F)c2)C(=O)O1 [Exmp. 138, (S)-[N-3-(4-(2-(5-methyl-(1,2,4)-oxadiazol-3-yl)pyridin-5-yl)-3-fluorophenyl)-2-oxo-5-oxazolidinyl]methyl acetamide] | – | 0.1 |
| CC(=O)NC[C@H]1CN(c2ccc(N3CCOCC3)c(F)c2)C(=O)O1 [Example U-100766, reference compound] | 1.56 (≈ 4.62 µM) | – |
| CC(=O)NC[C@H]1CN(c2ccc(-c3ccc(-c4nnnn4C)nc3)c(F)c2)C(=O)O1 [Exmp. 139, (S)-[N-3-(4-(2-(1-methyl-5-tetrazolyl)-pyridin-5-yl)-3-fluorophenyl)-2-oxo-5-oxazolidinyl]methyl acetamide] | – | 0.1 |
| CC(=O)NC[C@H]1CN(c2ccc(-c3ccc(-n4cncn4)nc3)c(F)c2)C(=O)O1 [Exmp. 129, (S)-[N-3-(4-(2-(1,2,4-triazol-1-yl)pyridin-5-yl)-3-fluorophenyl)-2-oxo-5-oxazolidinyl]methyl acetamide] | – | 0.2 |
| CC(=O)NC[C@H]1CN(c2ccc(-c3ccc(-c4nnn[nH]4)nc3)c(F)c2)C(=O)O1 [Exmp. 152, (S)-[N-3-(4-(2-(5-Tetrazolyl)-5-pyridinyl)-3-fluorophenyl)-2-oxo-5-oxazolidinyl]methyl Acetamide] | – | >25 |
| CO[C@H]1/C=C/O[C@@]2(C)Oc3c(C)c(O)c4c(O)c(c(/C=N/N5CCN(C)CC5)c(O)c4c3C2=O)NC(=O)/C(C)=C\C=C\[C@H](C)[C@H](O)[C@@H](C)[C@@H](O)[C@@H](C)[C@H](OC(C)=O)[C@@H]1C [Rifampin, reference compound] | 0.2 (≈ 0.243 µM) | – |
| CC(=O)NC[C@H]1CN(c2ccc(-c3ccc(N4CCOC4=O)nc3)c(F)c2)C(=O)O1 [Exmp. 143, (S)-[N-3-(4-(2-(2-oxo-(1,3)-oxazolidin-3-yl)-pyridin-5-yl)-3-fluorophenyl)-2-oxo-5-oxazolidinyl]methyl acetamide] | – | 0.1 |
| CC(=O)NC[C@H]1CN(c2ccc(-c3ccc(-c4nnc(C)o4)nc3)c(F)c2)C(=O)O1 [Exmp. 137, (S)-[N-3-(4-(2-(5-methyl-(1,3,4)-oxadiazol-2-yl)-pyridin-5-yl)-3-fluorophenyl)-2-oxo-5-oxazolidinyl]methyl acetamide] | – | 0.1 |
| CC(=O)NC[C@H]1CN(c2ccc(-c3ccc(-n4cnnn4)nc3)c(F)c2)C(=O)O1 [Exmp. 136, (S)-(N-3-(4-(2-(1-tetrazolyl)-pyridin-5-yl)-3-fluorophenyl)-2-oxo-5-oxazolidinyl)methyl acetamide] | – | 0.1 |
| CC(=O)NC[C@H]1CN(c2ccc(-c3ccc(-c4nnn(C)n4)nc3)c(F)c2)C(=O)O1 [Exmp. 140, (S)-[N-3-(4-(2-(2-methyl-5-tetrazolyl)-pyridin-5-yl)-3-fluorophenyl)-2-oxo-5-oxazolidinyl]methyl acetamide] | – | 0.1 |
